Consider one compound from paper PMC10685318, “Trans-cyclosulfamidate mannose-configured cyclitol allows isoform-dependent inhibition of GH47 α-D-mannosidases through a bump–hole strategy” (Chemical Science, 2023).

The target of this assay is T1, MAN2B1 (Homo sapiens, UniProt O00754).
T1 construct: expressed in transfected cells
T1 sequence (O00754 50-1011): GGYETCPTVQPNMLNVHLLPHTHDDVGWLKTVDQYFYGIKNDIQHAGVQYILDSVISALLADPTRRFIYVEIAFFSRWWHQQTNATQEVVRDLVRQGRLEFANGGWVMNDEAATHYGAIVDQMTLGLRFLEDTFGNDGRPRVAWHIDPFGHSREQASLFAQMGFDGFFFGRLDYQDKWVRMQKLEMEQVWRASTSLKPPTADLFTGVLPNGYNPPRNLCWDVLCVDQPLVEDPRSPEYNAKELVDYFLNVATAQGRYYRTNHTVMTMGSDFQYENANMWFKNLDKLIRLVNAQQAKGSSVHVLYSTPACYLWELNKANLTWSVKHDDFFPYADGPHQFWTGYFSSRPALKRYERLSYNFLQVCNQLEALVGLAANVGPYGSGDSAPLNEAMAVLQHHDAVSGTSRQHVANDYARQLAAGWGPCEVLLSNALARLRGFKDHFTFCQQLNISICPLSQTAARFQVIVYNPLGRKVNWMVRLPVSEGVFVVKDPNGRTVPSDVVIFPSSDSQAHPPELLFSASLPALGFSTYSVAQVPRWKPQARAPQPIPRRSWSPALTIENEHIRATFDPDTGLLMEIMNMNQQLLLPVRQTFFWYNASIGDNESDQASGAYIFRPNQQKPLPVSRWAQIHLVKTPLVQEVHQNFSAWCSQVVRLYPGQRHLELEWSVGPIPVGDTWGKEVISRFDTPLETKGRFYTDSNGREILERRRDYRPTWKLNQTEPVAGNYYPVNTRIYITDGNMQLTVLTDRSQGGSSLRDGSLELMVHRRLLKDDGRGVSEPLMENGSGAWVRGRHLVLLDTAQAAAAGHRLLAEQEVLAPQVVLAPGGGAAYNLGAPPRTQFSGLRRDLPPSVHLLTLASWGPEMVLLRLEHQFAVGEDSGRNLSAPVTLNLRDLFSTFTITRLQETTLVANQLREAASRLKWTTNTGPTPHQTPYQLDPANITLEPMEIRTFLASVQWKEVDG
The assay can be described thus: 4-MU-α-man activity assay in overexpressed cell lysates. It is filed as biochemical. An excerpt:
Finally, selectivity versus a panel of related exo-mannosidases was investigated. We first tested inhibition against all five human GH38 retaining α-mannosidases in overexpressed cell lysates using 4-methylumbelliferyl-α-mannoside (4-MU-α-man): Golgi mannosidase II and IIx (MAN2A1 and MAN2A2), cytosolic MAN2C1 and lysosomal MAN2B1 and MAN2B2. This α-mannosidase family follows a different conformational itinerary than GH47: ^0S2 → B2,5 → ^1S5.[35] […] Of note, the presence of cobalt has been associated with conformational changes in the active site of some GH38 α-mannosidases, which might affect the binding interaction with inhibitors.[36] Nevertheless, additional research is required to explore which specific metal ion is present in the MAN2C1 active site in its in vivo state.
Trans-Cyclosulfamidate Cyclitols Males et al.
2.3 GH38 α-mannosidases and GH2 β-mannosidase inhibition studies
All chemicals were of analytical grade and purchased from Sigma-Aldrich unless stated otherwise.
Optimal stability of cell homogenates and enzyme working stocks was ensured by preparation and temporary storage on ice. Cell homogenates were prepared and used on the same day. Protein concentrations were quantified using the Pierce BCA Protein Assay Kit (ThermoFisher). Protein samples were measured in clear flat-bottom polystyrene 96 well microplates (Greiner Bio-One) using a EMax Plus Microplate Reader (Molecular Devices). Activity measurements of human GH38 α-mannosidases and bacterial β-mannosidase BtMan2A were performed in black flat-bottom polystyrene 96 wells microplates (Greiner Bio-One) and total fluorescence was measured using a Perkin Elmer LS-55 fluorescence spectrometer at wavelengths λex = 366 and λem = 445 nm, with the signal optimized for medium gain readings. The fluorescence values of each enzyme sample were corrected for the background signal of a blank sample containing no enzyme. In the case of IC50 determinations, values were normalized against a control sample containing enzyme without added inhibitor. For a single experiment, three separate curves were fitted from a technical triplicate by setting the inhibitor concentration in µM against the normalized response using GraphPad Prism 8.4.2 software. The Prism functions ‘[inhibitor] versus normalized response’ and ‘[inhibitor] versus normalized response -- variable slope’ were compared for each curve using the Akaike’s Information Criterion method to select the preferred model. Reported IC50 values are mean ± standard deviation from a biological […]
General cell culture protocol
HEK293T cells were grown to confluency at 37 °C under a 5% CO2 atmosphere in Dulbecco’s Modified Eagle’s Medium (DMEM) with a high glucose concentration (Capricorn Scientific, DMEM-HPXA) that was supplemented with 10% fetal calf serum, 0.1% (w/v) penicillin/streptomycin and 1% (v/v) Glutamax. Cells were passaged twice a week to new round polystyrene (PS) tissue culture dishes (Sarstedt) by detachment off the former culture plates by careful pipetting. To prepare cell pellets for activity measurements, plates were grown to confluency and harvested in phosphate buffered saline (PBS). After centrifugation at 1500 rpm for 5 min, the remaining PBS was aspirated and the cells were resuspended in fresh PBS. The concentration of the resulting suspension was then counted using a TC20 automated cell counter (BioRad). Aliquots were centrifuged at 2000 rpm for 5 min and the resulting cell pellets were stored at -80 °C until further use.
4-MU activity assay protocol for human GH38 α-mannosidases
HEK293T cells stably overexpressing human GH38 α-mannosidases MAN2A1, MAN2A2, MAN2B1, MAN2B2 and MAN2C1 were prepared as previously described[11] and were kindly donated by Dr. C. L.
Kuo. Homogenates were prepared by sonicating cell pellets (Sonics VibraCell, 5x1 s with 30 s interval at 20% amplitude) in 150 mM McIlvain buffer of pH 5.5 (MAN2A1, MAN2A2), pH 4.5 (MAN2B1, MAN2B2) or pH 6.7 (MAN2C1) containing either 2 mM ZnCl2 (MAN2A1, MAN2A2, MAN2B1, MAN2B2) […]

Molecules are shown by their SMILES. A value given as a limit tells only on which side of the number the result lay.

As for `O=S1(=O)N[C@@H]2[C@@H](O)[C@@H](O)[C@H](O)[C@@H](CO)[C@H]2O1` [compound 6, 1,6-trans-manno-cyclosulfamidate], the “activity when the buffer was enriched with CoCl2” value (CoCl2) was “no activity”. Moreover, under “Zn2+”, the IC50 is above 1000 µM.

As a reminder, the IC50 is the concentration needed to halve the response being measured.
